Measured values taken from patent US9987247B2, “Drugs for treating diseases of cervical and/or lumbar vertebrae” (priority 2013, dated 2018).

Legend:
lumbar disc herniation = assay: Treatment of patients with lumbar disc herniation with oral benzbromarone (case reports); assay type: in vivo, human
[1] = tested on: cervical disc herniation / cervical disease; assay: Treatment of patients with cervical disc herniation / cervical disease with oral benzbromarone (case reports); assay type: in vivo, human
Description: The clinical effect criteria of the drug of the present application for treating cervical spondylosis can also be evaluated 2 weeks after treatment.

[2] = Patient A, 100 mg first day then 50 mg once a day, after five days
[3] = Patient A, 100 mg first day then 50 mg once a day, after two days
[4] = Patient B, 50 mg once a day, after seven days
[5] = Patient C, 12.5 mg once a day, after continuous administration for six days
[6] = Patient H, 100 mg once a day plus sodium bicarbonate, after six days
[7] = Patient L, 100 mg once a day plus sodium bicarbonate, after seven days

SMILES: CCc1oc2ccccc2c1C(=O)c1cc(Br)c(O)c(Br)c1 [benzbromarone]
- painful symptoms (lumbar disc herniation; Patient A, about 75 kg, once a day, 100 mg first day then 50 mg, after one day): lessened
- pain (lumbar disc herniation; [2]): basically disappeared
- walking (lumbar disc herniation; [2]): could walk properly
- ability to walk (lumbar disc herniation; [3]): able to walk
- painful symptoms (lumbar disc herniation; [3]): alleviated obviously
- recurrence of symptoms (lumbar disc herniation; Patient A, within the next six months): haven't occurred
- painful symptoms (lumbar disc herniation; Patient B, about 60 kg, 50 mg once a day, waist massage first two days, after two days): alleviated obviously
- ability to walk and work (lumbar disc herniation; [4]): able to walk and work
- pain during severe coughing (lumbar disc herniation; [4]): no perceptible pain
- waist pain (lumbar disc herniation; [4]): basically disappeared
- recurrence (lumbar disc herniation; Patient B, within the next three months): no recurrence
- pain (lumbar disc herniation; Patient C, 12.5 mg once a day, waist massage first two days, six days later): significantly lessened
- symptoms of pain (lumbar disc herniation; [5]): disappeared
- walking and ability to work (lumbar disc herniation; [5]): walked properly and was able to work
- Straight leg raising test (lumbar disc herniation; Patient C, 12.5 mg once a day, after continuous administration for six days, positive before treatment): negative
- recurrence (lumbar disc herniation; Patient C, within the next two months): no recurrence
- pain (lumbar disc herniation; Patient D, L4/5 protrusion, 50 mg once a day, no other treatment, three days later): significantly lessened
- walking, ability to work, pain (lumbar disc herniation; Patient D, 50 mg once a day, after six days): walked properly and was able to work without pain
- Straight leg raising test (lumbar disc herniation; Patient D, 50 mg once a day, after six days, positive before treatment): negative
- recurrence (lumbar disc herniation; Patient D, within the next three months): no recurrence
- pain (lumbar disc herniation; Patient F, about 25 mg once a day, waist massage first three days, three days later): significantly lessened
- walking (lumbar disc herniation; Patient F, about 25 mg once a day, after six days): walked properly
- ability to walk (lumbar disc herniation; Patient F, about 25 mg once a day, three days later): able to walk
- recurrence (lumbar disc herniation; Patient F, within the next two months): no recurrence
- pain (lumbar disc herniation; Patient H, about 62 kg, L3/4 protrusion, 100 mg once a day plus sodium bicarbonate tablets 0.5 g three times a day, two days later): significantly reduced
- pain when coughing (lumbar disc herniation; [6]): no pain was felt
- waist pain (lumbar disc herniation; [6]): basically disappeared
- walking and ability to work (lumbar disc herniation; [6]): could walk normally, and was able to work
- Straight leg raising test (lumbar disc herniation; Patient H, 100 mg once a day plus sodium bicarbonate, after six days, positive before treatment): negative
- recurrence (lumbar disc herniation; Patient H, within the next three months): No recurrence
- pain (lumbar disc herniation; [7]): basically disappeared
- walking and work ability (lumbar disc herniation; [7]): normal walking, work ability recovery
- Bragard test (lumbar disc herniation; Patient L, 100 mg once a day plus sodium bicarbonate, after seven days, positive before treatment): negative
- relapse (lumbar disc herniation; Patient L, during the following two months): no relapse
- symptoms in pain, upper limbs numbness and dizziness ([1]; Patient E, cervical intervertebral disc herniation, about 50 mg once a day, no other treatment, six days later): relieved
- pain and dizziness symptoms ([1]; Patient G, cervical disease, about 25 mg once a day, neck massage first three days, eight days later): disappeared
- Fenz signs ([1]; Patient G, about 25 mg once a day, eight days later, positive before treatment): negative
- dizziness symptoms ([1]; Patient I, about 55 kg, cervical disc herniation, capsules 50 mg twice a day plus sodium bicarbonate tablets 0.5 g three times a day, after three days): reduced significantly
- pain and dizziness symptoms ([1]; Patient I, capsules 50 mg twice a day plus sodium bicarbonate, after eight days): disappeared
- flexion neck rotation test ([1]; Patient I, capsules 50 mg twice a day plus sodium bicarbonate, after eight days, positive before treatment): negative
- recurrence ([1]; Patient I, within the next one months): no recurrence
